# Laboratory results: paper PMC8586700 (Frontiers in Pharmacology, 2021)
# Read-outs that look alike come from different tables or passages of the source.
# Tests used:
# [1] = parameters: method as in Yang et al., 2007; conditions: ref Yang et al., 2007; cited from earlier work
# [2] = Stability experiment in plasma and brain homogenate samples; format: in vitro ADME, SD rats; conditions: for Recoveries after being kept at room temperature for 12 h: plasma samples
# Procedure: Three blank samples of plasma and brain homogenate of SD rats were added into the mixed standard solution. The stability experiment included placing at room temperature for 12 h, repeatedly freeze-thaw for three times and frozen for 15 days.
# [3] = Solubility in solvents and vehicles; format: physicochemical
# Excerpt: DMSO is a universal organic solvent that is mutually soluble with most solvents and has a protective effect on red blood cells, platelets, bone marrow and various tissue cells during cryopreservation ([Willson et al., 1965]).
# [4] = Repeated administration, drug concentrations of plasma and brain; format: in vivo, SD rats; conditions: for Detection in brain tissue: after repeated administration; for Mean concentrations±sd in brain after multiple doses: brain homogenate; for Effect on plasma concentration of DHC: repeated administration with CUR
# Procedure: (§1) Plasma or brain homogenate of SD rats was taken 50 μL, internal standard solution of 50 μL and protein precipitator of 150 μL were added. After eddy oscillation for 3 min, supernatant was separated by centrifugation.
# The concentration of drugs in plasma and brain homogenate after repeated administration was determined according to the same grouping and administration method. The loading dose of 200 mg kg^−1 was given for the first time and half doses for four consecutive days.
# (§2) Plasma was collected by centrifugation of blood at 3000 RPM for 10min, and stored at -80 °C. Brain tissue of SD rat was dissected, weighed and added with normal saline at a volume of 2 ml g^−1. After homogenating brain tissue for 3 min by a homogenizer at 14,000 RPM, the supernatant was collected after centrifugation at 12,000 RPM for 10 min.
# rats = test system: rats; parameters: method as in Willson et al., 1965; conditions: intragastric administration, ref Willson et al., 1965; cited from earlier work
# [5] = Pharmacokinetic experiment, single intragastric administration, plasma by HPLC-UV; format: in vivo, SD rats; conditions: for concentration at 40 min / concentration at 60 min / concentration at 90 min / concentration at 150 min / concentration at 210 min: SD (Sprague-Dawley); for concentration at 40 min / concentration at 60 min / concentration at 90 min / concentration at 150 min / concentration at 210 min / concentration at 20 min / concentration at 270 min / concentration at 330 min / AUC / Cmax / half-life / Tmax: rat, plasma, po; for concentration at 20 min / concentration at 270 min / concentration at 330 min: SD; for AUC / Cmax / half-life / Tmax: Sprague-Dawley, 150 mg/kg, PIP or ILE 150 mg kg^−1 oral together with CUR 200 mg kg^−1; for AUC: read-out: AUC(0-tn) (converted); for Cmax: read-out: Cmax; for half-life: read-out: T1/2(el); for Tmax: read-out: Tmax (converted); for Effect of combined administration with CUR on plasma concentration of DHC: single administration, drug-time curve
# Procedure: An Agilent 1200 HPLC system was used. […] The flow rate was set at 1 ml min^−1 and detection wavelength was 420, 340 and 323 nm. Injection volume was 5 μL. The column temperature was set at 30°C.
# as §1
# Blood samples were collected from tail vein at 20 min, 40 min, 1, 1.5, 2.5, 3.5, 4.5, and 5.5 h after intragastric administration.
# as §2
# [6] = ILE compared with PIP at the same dose
# [7] = Mean concentrations ±sd, ILE, Group C (CUR 200 mg kg^−1 and ILE 150 mg kg^−1 oral)
# [8] = Group B (CUR 200 mg kg^−1 and PIP 150 mg kg^−1 oral), read-out: Mean concentrations ±sd, PIP
Compound,Recoveries after repeated freezing-thawing for three times ([2]; brain homogenate),Recoveries after repeated freezing-thawing for three times ([2]; plasma),Recoveries after being kept at room temperature for 12 h [2],Solubility in DMSO [3],Detection in brain tissue [4],AUC [5] [ng·h/mL],Cmax [5] [ng/mL],half-life [5] [h],Tmax [5] [h],Effect of combined administration with CUR on plasma concentration of DHC [5],Mean concentrations±sd in brain after multiple doses [4] [ng/mL],Effect on plasma concentration of DHC [4],other results
"COc1cc(/C=C/C(=O)CC(=O)/C=C/c2ccc(O)c(OC)c2)ccc1O [CUR, Curcumin]",over 100%,over 100%,less than 30%,well dissolved,could not be detected,–,–,–,–,–,–,–,"Oral bioavailability [1]: 1%; recovery at 12 h ([2]; SD, rat, brain homogenate samples, read-out: Recovery after 12 h placement at room temperature): < 15%; Solubility in EtOH and glycerin [3]: slightly soluble; Solubility in water and various plant extracted oils [3]: insoluble"
"C[S+](C)[O-] [DMSO, dimethyl sulfoxide]",–,–,–,–,–,–,–,–,–,–,–,–,"Adverse reactions in the experimental animals ([4]; DMSO as solvent of intragastric administration for five consecutive days, SD rats): no adverse reactions occurred; LD50 (rats): 28300 mg/kg"
"O=C(/C=C/c1ccc2c(c1)OCO2)N1CCCCC1 [ILE, Ilepcimide, reference compound]",over 100%,over 100%,–,well dissolved,could be detected,15400,5500 ± 2000,1.67 ± 0.287,3.07,could increase plasma concentration of DHC,1600 ± 200,could both increase the plasma concentration of DHC,"AUC(0-tn) increased by [5, 6]: 32.1%; T1/2 decreased by [5, 6]: 40.2%; Tmax increased by [5, 6]: 1.7 times; concentration at 40 min [5, 7]: 1600 ± 100 ng/mL; concentration at 60 min [5, 7]: 2000 ± 500 ng/mL; concentration at 90 min [5, 7]: 2800 ± 900 ng/mL; concentration at 150 min [5, 7]: 5500 ± 1900 ng/mL; concentration at 210 min [5, 7]: 3400 ± 500 ng/mL; concentration at 20 min [5, 7]: 1300 ± 800 ng/mL; concentration at 270 min [5, 7]: 2200 ± 400 ng/mL; concentration at 330 min [5, 7]: 1200 ± 800 ng/mL"
"O=C(/C=C/C=C/c1ccc2c(c1)OCO2)N1CCCCC1 [PIP, Piperine, reference compound]",over 100%,over 100%,lower than 75%,well dissolved,could be detected,11700,4200 ± 700,2.79 ± 0.59,1.13,no obvious effect,2100 ± 100,could both increase the plasma concentration of DHC,"Recovery after 12 h placement at room temperature ([2]; brain homogenate samples): only showed slight decrease; concentration at 40 min [5, 8]: 2100 ± 700 ng/mL; concentration at 60 min [5, 8]: 4200 ± 700 ng/mL; concentration at 90 min [5, 8]: 2600 ± 500 ng/mL; concentration at 150 min [5, 8]: 2400 ± 900 ng/mL; concentration at 210 min [5, 8]: 2200 ± 500 ng/mL; concentration at 20 min [5, 8]: 1400 ± 400 ng/mL; concentration at 270 min [5, 8]: 1700 ± 400 ng/mL; concentration at 330 min [5, 8]: 1400 ± 200 ng/mL; Mean concentrations±sd, PIP in plasma after multiple doses ([4]; Group II: CUR and PIP): 2400 ± 500 ng/mL"
